Results taken from US5559209A, “Regulator regions of G proteins” (The General Hospital Corporation, priority 1993, dated 1996).
Where no end group is shown, it is not given here.

Key:
Go = Go (Homo sapiens, UniProt P09471); assay: GTPγS binding, MIII-induced Go activation; format: biochemical; conditions: 10 nM Go, 1 μM MIII, 2 min
Protocol: (§1) GTPγS binding Assay--GTPγS binding to G proteins was assayed at 37° C. in 20 mM Hepes/NaOH buffer (pH 7.4) containing 130 μM MgCl2, 110 μM EDTA and 60 nM [^35 S]GTPγS, as described previously (Okamoto et al., 1990). GTPγS binding to polypeptides was negligible. The total amount of G protein was measured as maximal GTPγS binding at room temperature, as described (Okamoto et al., Cell 67:723-730, 1991a). [^35 S]GTPγS was purchased from DuPont-New England Nuclear. Binding of GTPγS to G proteins obeyed first-order kinetics according to the equation ln[(BT-B)/BT]=-kapp t, where B is the binding at time t and BT is the total binding observable at an infinite time. Thus, the apparent first-order rate constant for GTPγS binding (kapp), which is equal to the slope of the tangent to the GTPγS binding curve at time 0 and represents the actual GTPγS binding rate, was calculated from this equation.
(§2) The MIII peptide is a Gi /Go -activator region in the third intracellular loop of the G-coupled receptor termed M4 AChR (Okamoto et al., J. Biol. Chem. 267:8342-8346, 1992). This peptide has the sequence RNQVRKKRQMAARERKVTR (SEQ ID NO: 30). In the experiments illustrated in FIG. 1D, 10 nM Go (.quadrature.) or Gi2 (.diamond-solid.) was incubated with 1 μM MIII for 2 or 5 min, respectively, and GTPγS binding was measured in the same manner as in FIG. 1A. […]

Gs = biological target: T1, Gs (Bos taurus, UniProt P04896); assay: GTPγS binding, βIII-2-induced Gs activation; format: biochemical, bovine; conditions: 10 nM Gs, 1 μM βIII-2, 10 min
T1 construct: Trimeric Gs and Gβγ purified from bovine brain to near homogeneity; from tissue; host or cells: bovine brain
T1 sequence (P04896 2-394 limits assumed): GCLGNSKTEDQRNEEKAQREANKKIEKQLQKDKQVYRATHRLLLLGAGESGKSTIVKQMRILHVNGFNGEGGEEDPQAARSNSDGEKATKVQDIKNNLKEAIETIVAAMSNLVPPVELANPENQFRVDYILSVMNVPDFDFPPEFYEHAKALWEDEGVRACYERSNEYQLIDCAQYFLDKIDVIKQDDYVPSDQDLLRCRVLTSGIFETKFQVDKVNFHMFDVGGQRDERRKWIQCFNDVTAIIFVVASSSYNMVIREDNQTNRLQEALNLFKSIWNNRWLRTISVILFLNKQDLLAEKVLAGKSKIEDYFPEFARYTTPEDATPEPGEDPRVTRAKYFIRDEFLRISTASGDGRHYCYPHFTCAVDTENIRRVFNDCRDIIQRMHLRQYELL
T1 sequence (P62871 2-340 partner limits assumed): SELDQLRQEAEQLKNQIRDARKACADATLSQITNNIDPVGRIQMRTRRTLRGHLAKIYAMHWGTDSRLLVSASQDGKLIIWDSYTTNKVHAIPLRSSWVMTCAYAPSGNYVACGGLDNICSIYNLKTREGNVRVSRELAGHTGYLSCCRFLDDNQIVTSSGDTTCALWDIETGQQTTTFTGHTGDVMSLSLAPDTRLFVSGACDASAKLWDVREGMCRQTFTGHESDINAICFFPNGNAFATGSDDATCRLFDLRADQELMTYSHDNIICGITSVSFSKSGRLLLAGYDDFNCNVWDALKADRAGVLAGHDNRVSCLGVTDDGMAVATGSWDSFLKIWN
T1 sequence (P63212 2-68 partner limits assumed): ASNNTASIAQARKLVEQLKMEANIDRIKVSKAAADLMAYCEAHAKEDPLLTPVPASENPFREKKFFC
Protocol: (§3) Materials and Methods The in vitro assays described below utilize the couplone portion of each of a number of G-coupled receptors, instead of an intact receptor molecule, as a means for activating the corresponding anticouplone or intact G-protein. […]
as §1, with “GTPγS binding to polypeptides was negligible.” left out, “[^35 S]GTPγS was purchased from DuPont-New England Nuclear. Binding of GTPγS to G proteins obeyed first-order kinetics according to the equation ln[(BT-B)/BT]=-kapp t, where B is the binding at time t and BT is the total binding observable at an infinite time.” left out
GTPβS binding was measured following incubation of solubilized Gs at 10 nM with 1 μM βIII-2 (RRSSKFCLKEHKALK; SEQ ID NO: 29) in the presence of ACGi2 for 10 min. […]

Gi2 [1] = biological target: T2, Gi2 (Bos taurus, UniProt A7MBH9); assay: GTPγS binding, MIII-induced Gi2 activation; format: biochemical, bovine; conditions: 10 nM Gi2, 1 μM MIII, 5 min; read-out: IC50, attenuation of MIII-induced Gi2 activation
T2 construct: trimeric Gi2 (i.e., Gi2 αβγ) purified from bovine brain to near homogeneity; from tissue; host or cells: bovine brain
T2 sequence (A7MBH9 2-355 limits assumed): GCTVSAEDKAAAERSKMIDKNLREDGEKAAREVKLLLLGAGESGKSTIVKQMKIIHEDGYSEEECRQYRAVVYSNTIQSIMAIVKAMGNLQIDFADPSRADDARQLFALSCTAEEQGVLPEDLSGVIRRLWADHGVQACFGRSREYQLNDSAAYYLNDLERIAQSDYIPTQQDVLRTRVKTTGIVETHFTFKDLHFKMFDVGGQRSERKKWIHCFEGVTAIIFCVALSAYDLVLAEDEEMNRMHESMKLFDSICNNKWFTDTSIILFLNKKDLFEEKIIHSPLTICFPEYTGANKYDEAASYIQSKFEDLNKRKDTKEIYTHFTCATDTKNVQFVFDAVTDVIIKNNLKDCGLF
T2 sequence (P62871 2-340 partner limits assumed): as the sequence (P62871 2-340 partner limits assumed) above
T2 sequence (P63212 2-68 partner limits assumed): as the sequence (P63212 2-68 partner limits assumed) above
Protocol: as §3
as §1, with “GTPγS binding to polypeptides was negligible.” left out, “[^35 S]GTPγS was purchased from DuPont-New England Nuclear. Binding of GTPγS to G proteins obeyed first-order kinetics according to the equation ln[(BT-B)/BT]=-kapp t, where B is the binding at time t and BT is the total binding observable at an infinite time.” left out
as §2, with “This peptide has the sequence RNQVRKKRQMAARERKVTR (SEQ ID NO: 30).” left out

Gi3 = biological target: T3, Gi3 (Bos taurus, UniProt Q3ZCA7); assay: GTPγS binding, peptide 14-induced Gi3 activation; format: biochemical, bovine; conditions: 10 nM Gi3, 30 μM peptide 14, 4 min
T3 construct: was purified from bovine spleen and used in combination with 1.5-fold concentrated Gβγ; from tissue; host or cells: bovine spleen (Gi3 α); bovine brain (Gβγ)
T3 sequence (Q3ZCA7 2-354 limits assumed): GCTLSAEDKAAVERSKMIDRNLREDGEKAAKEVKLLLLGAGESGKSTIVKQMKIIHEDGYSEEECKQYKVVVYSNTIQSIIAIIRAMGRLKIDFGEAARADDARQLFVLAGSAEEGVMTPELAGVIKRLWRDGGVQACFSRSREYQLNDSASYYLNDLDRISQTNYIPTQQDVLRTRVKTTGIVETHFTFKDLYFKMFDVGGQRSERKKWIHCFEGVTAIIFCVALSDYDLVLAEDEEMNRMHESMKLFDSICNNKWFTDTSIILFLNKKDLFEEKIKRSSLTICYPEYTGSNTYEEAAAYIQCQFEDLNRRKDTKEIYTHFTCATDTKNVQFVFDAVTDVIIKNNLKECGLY
T3 sequence (P62871 2-340 partner limits assumed): as the sequence (P62871 2-340 partner limits assumed) above
T3 sequence (P63212 2-68 partner limits assumed): as the sequence (P63212 2-68 partner limits assumed) above
Protocol: as §3
as §1, with “GTPγS binding to polypeptides was negligible.” left out, “[^35 S]GTPγS was purchased from DuPont-New England Nuclear. Binding of GTPγS to G proteins obeyed first-order kinetics according to the equation ln[(BT-B)/BT]=-kapp t, where B is the binding at time t and BT is the total binding observable at an infinite time.” left out
Peptide 14 is capable of activating Gi1 and Gi3 as well as Gi2 (Okamoto et al., 1990). The effect of ACGi2 on peptide 14-induced activation of these Gi proteins was examined as follows: 10 nM Gi1 (.quadrature.) or Gi3 (.diamond-solid.) was incubated with 30 μM peptide 14 in the presence of various concentrations of ACGi2 for 4 min, and GTPβS binding was measured. […]

Gi2 [2] = biological target: T2, Gi2; assay: GTPγS binding, TrM-peptide 14-induced Gi2 activation in phospholipid vesicles; format: biochemical, bovine; conditions: 0.3 nM Gi2 in phospholipid vesicles, 100 nM TrM-peptide 14; read-out: IC50, inhibition of TrM-peptide 14 stimulation of Gi2
Protocol: as §3
as §1, with “GTPγS binding to polypeptides was negligible.” left out, “[^35 S]GTPγS was purchased from DuPont-New England Nuclear. Binding of GTPγS to G proteins obeyed first-order kinetics according to the equation ln[(BT-B)/BT]=-kapp t, where B is the binding at time t and BT is the total binding observable at an infinite time.” left out
Transmembrane domain-connected peptide 14 ["TrM-peptide 14"; […] […] In one of the experiments shown in FIG. 1B, 0.3 nM Gi2 reconstituted in phospholipid vesicles with 100 nM TrM-peptide 14 was exposed to various concentrations of ACGi2, and GTPγS binding was measured (.diamond-solid.). […]

Gi1 = Gi1 (Bos taurus, UniProt P63097); assay: GTPγS binding, peptide 14-induced Gi1 activation; format: biochemical; conditions: high concentrations (≥30 μM) of ACGi2; 10 nM Gi1, 30 μM peptide 14, 4 min
Sequence of Gi1 (P63097 2-354 limits assumed): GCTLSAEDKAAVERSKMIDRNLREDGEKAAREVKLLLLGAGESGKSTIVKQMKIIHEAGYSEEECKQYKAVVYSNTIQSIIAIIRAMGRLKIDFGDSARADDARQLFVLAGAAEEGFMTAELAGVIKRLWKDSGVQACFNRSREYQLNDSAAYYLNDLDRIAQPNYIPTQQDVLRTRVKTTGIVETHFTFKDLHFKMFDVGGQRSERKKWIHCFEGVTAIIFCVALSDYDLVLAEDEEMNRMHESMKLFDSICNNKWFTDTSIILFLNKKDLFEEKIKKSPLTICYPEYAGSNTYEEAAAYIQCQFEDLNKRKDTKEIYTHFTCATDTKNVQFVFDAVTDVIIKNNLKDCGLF
Sequence of Gi1 (P62871 2-340 partner limits assumed): as the sequence (P62871 2-340 partner limits assumed) above
Sequence of Gi1 (P63212 2-68 partner limits assumed): as the sequence (P63212 2-68 partner limits assumed) above
Protocol: as §1
Peptide 14 is capable of activating Gi1 and Gi3 as well as Gi2 (Okamoto et al., 1990). The effect of ACGi2 on peptide 14-induced activation of these Gi proteins was examined as follows: 10 nM Gi1 (.quadrature.) or Gi3 (.diamond-solid.) was incubated with 30 μM peptide 14 in the presence of various concentrations of ACGi2 for 4 min, and GTPβS binding was measured. The fractional GTPγS binding to Gi1 or Gi3 at 0% was (in 4 min^-1) 0.38 or 0.30, and that at 100% was 0.54 or 0.63, respectively.

Sequence of Go (P09471 2-354 limits assumed): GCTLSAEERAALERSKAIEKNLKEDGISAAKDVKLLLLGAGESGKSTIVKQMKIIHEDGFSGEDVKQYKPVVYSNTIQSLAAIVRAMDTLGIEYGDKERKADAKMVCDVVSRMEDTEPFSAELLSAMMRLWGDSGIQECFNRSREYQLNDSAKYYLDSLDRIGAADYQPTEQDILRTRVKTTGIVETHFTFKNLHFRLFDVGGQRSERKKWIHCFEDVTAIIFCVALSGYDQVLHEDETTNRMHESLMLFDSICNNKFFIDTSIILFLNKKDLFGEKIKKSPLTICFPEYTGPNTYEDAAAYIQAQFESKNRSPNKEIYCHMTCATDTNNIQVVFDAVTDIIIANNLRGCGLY
Sequence of Go (P62873 2-340 partner limits assumed): as the sequence (P62871 2-340 partner limits assumed) above
Sequence of Go (P59768 2-68 partner limits assumed): as the sequence (P63212 2-68 partner limits assumed) above

Sequence: DAVTDVIIKNNLKDC [ACGi2, DAVTDVIIKNNLKDC]
- IC50 (Go): ~30 µM
- maximal inhibition of βIII-2-stimulated Gs (Gs): 40%
- IC50 (Gi2 [1]): 10 µM
- maximal inhibition of peptide 14-induced Gi3 activation (Gi3): ≈ 60%
- IC50 (Gi2 [2]): 3 µM
- maximal inhibition of peptide 14-induced Gi1 activation (Gi1): 30%
